The subject of the test is BDF1 mice, B16 melanoma ip, median survival T/C. Description: NCI In Vivo Anticancer Drug Screen. Data for tumor model B16 Melanoma (intraperitoneal) in B6D2F1 (BDF1) mice. Conditions: endpoint: median survival time, higher = longer survival. A digest of the protocol:
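Compounds were tested in mice carrying transplantable tumors. Survival or tumor size was recorded, and each value is the treated-group measurement (T) divided by that of the vehicle-treated control group (C).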

Where [1] appears, read: dose: 100.0 mg/kg/injection, schedule: Q01DX009 (ip), vehicle: Klucel (hydroxypropylcellulose) (HPC).
[2] abbreviates: dose: 200.0 mg/kg/injection, schedule: Q01DX009 (ip), vehicle: Klucel (hydroxypropylcellulose) (HPC).
Setting [3] is: dose: 400.0 mg/kg/injection, schedule: Q01DX009 (ip), vehicle: Klucel (hydroxypropylcellulose) (HPC).

“And” between values parts separate entries of the source, which are not always exact repeats. Identical values can stand only once. Toxic doses and inconclusive results are not listed.

Turning to `Cn1c(Cl)nc2c(Cl)nc(Cl)nc21`, the T/C (dose: 1.0 mg/kg/injection, schedule: Q01DX009 (ip), vehicle: saline) is 105 % of control; the T/C (dose: 2.0 mg/kg/injection, schedule: Q01DX009 (ip), vehicle: saline) was 100 % of control; the T/C (dose: 4.0 mg/kg/injection, schedule: Q01DX009 (ip), vehicle: saline) was 97 % of control; the T/C (dose: 8.0 mg/kg/injection, schedule: Q01DX009 (ip), vehicle: saline) was 95 % of control; the T/C (dose: 16.0 mg/kg/injection, schedule: Q01DX009 (ip), vehicle: saline) is 92 % of control; the T/C (dose: 32.0 mg/kg/injection, schedule: Q01DX009 (ip), vehicle: saline) is 92 % of control.

For `Cc1ccc2c(ccc(/C=C/c3ccc(O)c4ncccc34)[n+]2C)c1`, the T/C by setting is: (dose: 12.5 mg/kg/injection, schedule: Q01DX009 (ip), vehicle: saline with Tween-80) 113 % of control; (dose: 25.0 mg/kg/injection, schedule: Q01DX009 (ip), vehicle: saline with Tween-80) 103 % of control.

Take `CCOC(=O)Nc1cccc2ccccc12`: the T/C by setting is: (dose: 100.0 mg/kg/injection, schedule: Q04DX003 (ip), vehicle: Klucel (hydroxypropylcellulose) (HPC)) 102 % of control; (dose: 200.0 mg/kg/injection, schedule: Q04DX003 (ip), vehicle: Klucel (hydroxypropylcellulose) (HPC)) 105 % of control; (dose: 400.0 mg/kg/injection, schedule: Q04DX003 (ip), vehicle: Klucel (hydroxypropylcellulose) (HPC)) 102 % of control.

Turning to `C=C(C)C12CC(COC(=O)c3ccccc3)C34OC5(OC1C3C1OC1(COC(=O)CCCCCCCCCCCCCCC)C(O)C1(O)C(OC(=O)c3ccccc3)C(C)C(C(C)CCCCCCC5O)C14)O2` (stereo not drawn), the T/C by setting is: (dose: 0.5 micrograms/kg/injection, schedule: Q01DX009 (ip), vehicle: saline) 106 % of control; (dose: 1.0 micrograms/kg/injection, schedule: Q01DX009 (ip), vehicle: saline) 99 % of control; (dose: 1.9 micrograms/kg/injection, schedule: Q01DX009 (ip), vehicle: saline) 100 % of control; (dose: 3.8 micrograms/kg/injection, schedule: Q01DX009 (ip), vehicle: saline) 109 % of control; (dose: 7.5 micrograms/kg/injection, schedule: Q01DX009 (ip), vehicle: saline) 94 % of control; (dose: 15.0 micrograms/kg/injection, schedule: Q01DX009 (ip), vehicle: saline) 96 % of control. In addition, the T/C (dose: 30.0 micrograms/kg/injection, schedule: Q01DX009 (ip), vehicle: saline) is 96 % of control.

Regarding `CC12CCC(OC3OC(CO)C(OC4OC(CO)C(O)C(O)C4O)C(O)C3O)CC1CCC1C2CCC2(C)C(C3=CC(=O)OC3)CCC12O` (stereo not drawn), the T/C was 102 % of control (dose: 6.0 mg/kg/injection, schedule: Q01DX009 (ip), vehicle: saline); 114 % of control (dose: 12.0 mg/kg/injection, schedule: Q01DX009 (ip), vehicle: saline); 102 % of control (dose: 24.0 mg/kg/injection, schedule: Q01DX009 (ip), vehicle: saline); 92 % of control (dose: 48.0 mg/kg/injection, schedule: Q01DX009 (ip), vehicle: saline).

In the case of `Cc1ccc(C)n1-c1ccccc1C(=O)O`, the T/C by setting is: under setting [1], 106 % of control; under setting [2], 96 % of control; under setting [3], 90 % of control.

In the case of `Cc1c(Cl)ccc2c(C(O)CBr)cc(-c3ccccc3)nc12` (stereo not drawn), the T/C is 91 % of control (dose: 100.0 mg/kg/injection, schedule: Q01DX009 (ip), vehicle: saline with Tween-80) and 87 % of control (dose: 200.0 mg/kg/injection, schedule: Q01DX009 (ip), vehicle: saline with Tween-80).

For the molecule `CC/C(=C(\c1ccccc1)c1ccc(OCCN(C)C)cc1)c1ccccc1`, the T/C (dose: 25.0 mg/kg/injection, schedule: Q01DX009 (ip), vehicle: suspension in saline) is 97 % of control; the T/C (dose: 50.0 mg/kg/injection, schedule: Q01DX009 (ip), vehicle: suspension in saline) was 93 % of control; the T/C (dose: 100.0 mg/kg/injection, schedule: Q01DX009 (ip), vehicle: suspension in saline) was 91 % of control; the T/C (dose: 200.0 mg/kg/injection, schedule: Q01DX009 (ip), vehicle: suspension in saline) is 86 % of control.

For `O=C(CCN1CC1)Nc1ccc(NC(=O)CCN2CC2)cc1`, the T/C (dose: 5.0 mg/kg/injection, schedule: Q04DX003 (ip), vehicle: Klucel (hydroxypropylcellulose) (HPC)) was 170 % of control; the T/C (dose: 10.0 mg/kg/injection, schedule: Q04DX003 (ip), vehicle: Klucel (hydroxypropylcellulose) (HPC)) was 173 % of control and 184 % of control; the T/C (dose: 20.0 mg/kg/injection, schedule: Q04DX003 (ip), vehicle: Klucel (hydroxypropylcellulose) (HPC)) is 160 % of control and 175 % of control; the T/C (dose: 40.0 mg/kg/injection, schedule: Q04DX003 (ip), vehicle: Klucel (hydroxypropylcellulose) (HPC)) was 105 % of control.

As for `COc1cc(-c2ccc(N=Nc3ccc4c(S(=O)(=O)O)cc(S(=O)(=O)O)c(N)c4c3O)c(OC)c2)ccc1N=Nc1ccc2c(S(=O)(=O)O)cc(S(=O)(=O)O)c(N)c2c1O`, the T/C is 88 % of control (dose: 12.5 mg/kg/injection, schedule: Q01DX009 (ip), vehicle: Klucel (hydroxypropylcellulose) (HPC)); 97 % of control (dose: 25.0 mg/kg/injection, schedule: Q01DX009 (ip), vehicle: Klucel (hydroxypropylcellulose) (HPC)); 102 % of control (dose: 50.0 mg/kg/injection, schedule: Q01DX009 (ip), vehicle: Klucel (hydroxypropylcellulose) (HPC)).

Consider `O=C1NC(=O)C2C3C=CC(C3)C12` (stereo not drawn), for which the T/C reads like this: (dose: 25.0 mg/kg/injection, schedule: Q01DX009 (ip), vehicle: saline) 105 % of control; (dose: 50.0 mg/kg/injection, schedule: Q01DX009 (ip), vehicle: saline) 105 % of control; (dose: 100.0 mg/kg/injection, schedule: Q01DX009 (ip), vehicle: saline) 113 % of control.

On to `COc1c(O)c2c(c3cc(C(=O)N4CCc5c4c(O)c(OC)c4[nH]c(C(=O)N6CC7CC78C6=CC(=O)c6[nH]cc(C)c68)cc54)[nH]c13)CCN2C(N)=O` (stereo not drawn), for which the T/C (dose: 10.0 micrograms/kg/injection, schedule: Q01DX009 (ip), vehicle: other) was 181 % of control.

Regarding `CC(=O)OC(C)C1C2=C(C(=O)CC1(C)O)C(=O)c1c(ccc(-c3ccc4c(c3O)C(=O)C3=C(C4=O)C(C(C)OC(C)=O)C(C)(O)CC3=O)c1O)C2=O` (stereo not drawn), the T/C is 110 % of control (dose: 1.56 mg/kg/injection, schedule: Q01DX009 (ip), vehicle: saline with Tween-80); 117 % of control (dose: 3.13 mg/kg/injection, schedule: Q01DX009 (ip), vehicle: saline with Tween-80); 110 % of control (dose: 6.25 mg/kg/injection, schedule: Q01DX009 (ip), vehicle: saline with Tween-80).

On to `CC(Cc1ccccc1)NC(=O)/C=C/C(=O)O` (stereo not drawn), for which the T/C was 95 % of control under setting [1], 91 % of control under setting [2] and 89 % of control under setting [3].

For the origin of these results see PubChem BioAssay AID192 (DTP/NCI, 2004).
